Experimental data from patent publication US20230065079A1, “FATTY ACID DERIVATIVE LABELED WITH POSITRON-EMITTING RADIONUCLIDE” (ASTELLAS PHARMA INC., priority 2020, published 2023).

Experiment: PET test using normal cynomolgus monkey (heart contrast PET, SUV in myocardium and bone ROI)
Assay type: in vivo
Settings: for SUV (bone) 20 minutes / SUV (bone) 60 minutes / SUV (bone) 120 minutes / SUV (bone) 180 minutes / SUV (myocardium) 20 minutes / SUV (myocardium) 60 minutes / SUV (myocardium) 120 minutes / SUV (myocardium) 180 minutes: male normal cynomolgus monkey, about 300 MBq i.v.; for SUV (bone) 20 minutes / SUV (bone) 60 minutes / SUV (bone) 120 minutes / SUV (bone) 180 minutes: ROI bone (near the spine), n.d. = target organ cannot be confirmed in the image and ROI cannot be set; for SUV (bone) 20 minutes / SUV (myocardium) 20 minutes: 0 to 20 minutes after administration; for SUV (bone) 60 minutes / SUV (myocardium) 60 minutes: 20-minute section ending 60 minutes after administration; for SUV (bone) 120 minutes / SUV (myocardium) 120 minutes: 20-minute section ending 120 minutes after administration; for SUV (bone) 180 minutes / SUV (myocardium) 180 minutes: 160 to 180 minutes after administration; for SUV (myocardium) 20 minutes / SUV (myocardium) 60 minutes / SUV (myocardium) 120 minutes / SUV (myocardium) 180 minutes: ROI myocardium, Examples 1 case, Reference Example 15 average ± standard error of 3 cases
From the text: Solutions containing each compound prepared in Examples 1 to 7 and Reference Example 15 ([^18F]FTO) were used to perform a heart contrast PET test using normal cynomolgus monkeys.
For performing non-invasive PET imaging, in a state in which a male cynomolgus monkey was anesthetized with inhalation anesthetic isoflurane, the monkey was held at a supine body position on a PET camera SHR17000 (manufactured by Hamamatsu Photonics K.K.), the solution containing each compound (about 300 MBq) was administered from the lower extremity vein, and continuous imaging was performed for 180 minutes or more after the administration. The PET images were reconstructed by dynamic row-action maximum likelihood algorithm (DRAMA) and average images per each time section which is divided every 20 minutes from 0 minutes to 180 minutes after the administration, are obtained. Then, the region of interest (ROI) was set in the myocardium region or bone (near the spine), and the accumulation (standardized uptake value (SUV)) of each compound was calculated as {radioactivity count in the ROI (MBq/cc)/[dose (MBq)/body weight (g)]}.
The SUV values quantified by setting the ROI for the myocardium and the bone of each compound are shown in Tables 10 and 11 as SUV (myocardium) and SUV (bone). […] A case where the target organ cannot be confirmed in the image and the ROI cannot be set is denoted as n.d. The time in the Tables represents an end point of each time section, for example, “20 minutes” represents the SUV value from 0 minutes to 20 minutes after, and “180 minutes” represents the SUV value from 160 minutes to 180 minutes after the administration. In addition, Maximum Intensity Projection (MIP) PET images 60 minutes and 180 minutes after the administration of the compounds of Reference Example 15 ([…]) and Example 6 are shown in FIGS. 1A to 1D.

| SMILES | SUV (bone) 20 minutes | SUV (bone) 60 minutes | SUV (bone) 120 minutes | SUV (bone) 180 minutes | SUV (myocardium) 20 minutes | SUV (myocardium) 60 minutes | SUV (myocardium) 120 minutes | SUV (myocardium) 180 minutes | non-specific accumulation to the bone (PET, normal cynomolgus monkey, result in words) |
| --- | --- | --- | --- | --- | --- | --- | --- | --- | --- |
| CC/C=C\C/C=C\C/C=C\CC([18F])CCSCCC(=O)O (stereo not shown) [Example 1, 3-{[(5Z,8Z,11Z)-3-[lSF]fluorotetradeca-5,8,11-trien-1-yl]sulfanyl}propanoic acid] | 0.87 | 0.69 | 0.75 | 0.79 | 4.87 | 4.13 | 3.21 | 2.80 |  |
| CCCCCCCCCC([18F])CCSCCC(=O)O (stereo not shown) [Example 2, 3-[(3-[^18F]fluorododecyl)sulfanyl]propanoic acid] | 1.40 | 1.05 | 1.34 | 1.14 | 7.40 | 7.53 | 6.74 | 5.92 |  |
| CCCCC/C=C\C/C=C\CC([18F])CCSCCC(=O)O (stereo not shown) [Example 3, 3-{[(5Z,8Z)-3-[^18F]fluorotetradeca-5,8-dien-1-yl]sulfanyl}propanoic acid] | 2.12 | 2.00 | 2.07 | 2.08 | 5.75 | 3.20 | 2.80 | 2.41 |  |
| CCCCCCCCCCCC([18F])CCSCCC(=O)O (stereo not shown) [Example 4, 3-[(3-[^18F]fluorotetradecyl)sulfanyl]propanoic acid] | 1.57 | 1.13 | 1.27 | 1.51 | 6.65 | 5.44 | 4.38 | 3.92 |  |
| CCCCCCCC/C=C/CC([18F])CCSCCC(=O)O (stereo not shown) [Example 5, 3-{[(5E)-3-[^18F]fluorotetradec-5-en-1-yl]sulfanyl}propanoic acid] | 1.45 | 1.36 | 1.28 | 1.40 | 6.84 | 6.13 | 5.16 | 5.09 |  |
| CCCCCCCCC1CC1CC([18F])CCSCCC(=O)O (stereo not shown) [Example 6, 3-{[3-[^18F]fluoro-4-(2-octylcyclopropyl)butyl]sulfanyl}propanoic acid] |  |  |  |  | 7.74 | 6.24 | 4.80 | 3.98 | not detected at all |
| CCCCCCCCC([18F])CCSCCCCC(=O)O (stereo not shown) [Example 7, 5-[(3-[^18F]fluoroundecyl)sulfanyl]pentanoic acid] | 1.87 | 3.41 | 5.11 | 6.36 | 11.6 | 11.4 | 10.0 | 8.44 |  |
| O=C(O)CCSCCCC/C=C\CCCCCCCC[18F] [Reference Example 15, 3-{[(5Z)-14-[^18F]fluorotetradec-5-en-1-yl]sulfanyl}propanoic acid, reference compound] | 1.42 ± 0.10 | 2.27 ± 0.13 | 3.82 ± 0.60 | 5.05 ± 0.99 | 6.45 ± 0.59 | 6.54 ± 0.51 | 5.90 ± 0.58 | 5.21 ± 0.59 |  |
